Experiment: ATP-removal effect of ATPS and pyrophosphatase, luciferase readout
Assay type: biochemical
Settings: 100 μM ATP, 40 min at room temperature
Experimental: The ATP-removal effect of the reagent in Example 1 was verified.
ATP sulfurylase was prepared in the following buffer: 50 mM Tris-HCl buffer (pH 7.4)+10 mM MgCl2+20 mM Na2MoO4, where the concentration of each component is the final concentration in the resultant solution.
Reagent for ADP detection: 50 mM Tris-HCl buffer (pH 7.4)+20 mM MgSO4+50 mM KCl+2 mM EDTA+2 mM EGTA+0.1 mM D-luciferin+0.1 mM PEP-K (phosphoenolpyruvate monopotassium salt)+50 μg/mL luciferase+20 U/mL a pyruvate kinase, where the concentration of each component is the final concentration in the resultant solution.
The bioluminescence detection instrument was an EnVision (Perkin Elmer).
Next, 25 μL of ATP ([…]) was added to each well of a 96-well white opaque assay plate, followed by the addition of 25 μL of pyrophosphatase (PPA: 10 U/mL) and ATP sulfurylase (ATPS) at concentrations of 2 μg/mL, 1 μg/mL, and 0.5 μg/mL.
After incubation at room temperature (22° C.-25° C.) for 40 minutes, 50 μL of the reagent for ADP detection was added and mixed uniformly, and the fluorescence values were read after incubation was performed at room temperature for 10 minutes.
After 1 μM ATP+0.1 mM D-luciferin+50 μg/mL luciferase+50 mM Tris-HCl buffer (pH 7.4)+20 mM MgSO4 were incubated at room temperature for 10 minutes, the fluorescence value read was 439,640.
After 0.1 μM ATP+0.1 mM D-luciferin+50 μg/mL luciferase+50 mM Tris-HCl buffer (pH 7.4)+20 mM MgSO4 were incubated at room temperature for 10 minutes, the fluorescence value read was 47,720.
The remaining ATP after the action of ATPS and PPA was determined by comparing with the fluorescence values under conditions of ATP at 1 μM and 0.1 μM (see Table 2). It can be seen that the remaining ATP of 100 μM ATP under the action of ATPS (1 μg/mL) and pyrophosphatase was about 0.006%.

Luminescence (RLU) (ATPS 0.5 μg/mL + PPA 10 U/mL): 3.44E+03 RLU
Remaining ATP (%) (ATPS 0.5 μg/mL + PPA 10 U/mL): 0.0072%
Luminescence (RLU) (ATPS 1 μg/mL + PPA 10 U/mL): 2.88E+03 RLU
Luminescence (RLU) (ATPS 2 μg/mL + PPA 10 U/mL): 2.24E+03 RLU
Remaining ATP (%) (ATPS 2 μg/mL + PPA 10 U/mL): 0.0047%
Substance: ATPS
